In patent publication US11555179B2, “Identification of subpopulations of cardiomyocytes” (The University of Hong Kong, priority 2019, dated 2023):

Key:
[1] = tested on: CD36^+ hESC-CMs; assay: Doxorubicin-induced cardiotoxicity (XTT viability, TMRE/MTG Δψm); assay type: cell-based, human; conditions: for effect on cell viability upon dox treatment (XTT): pre-treatment (NAC 1 mM, 1 hr), FIGS. 5I-K show mixed, CD36^+ and CD36^− hESC-CMs
Experimental: FIGS. 5A and 5B are bar graphs showing the normalized levels of cell viability (A) and mitochondrial membrane potential Δψm (B) of mixed (unsorted) hESC-CMs, CD36^+ hESC-CMs, and CD36^− hESC-CMs after exposure to doxorubicin (dox). The hESC-CMs were treated with 1 mM dox for 24 hrs. Cell viability and mitochondrial membrane potential Δψm were determined by the XTT and TMRE/MTG assays (n=9 and 7), respectively, and normalized to untreated hESC-CMs.
(C) and (D): viability and Δψm for unsorted hESC-CMs; (E) and (F): viability and Δψm for CD36^+ hESC-CMs; (G) and (H): viability and Δψm for CD36^− hESC-CMs. The cells in the “Dox” groups were treated with 1 mM dox for 24 hrs; the cells in the “Dox+DRZ” groups were pre-treated with […] DRZ for 1 hr, followed by co-treatment with 1 mM dox for 24 hrs. Cell viability and mitochondrial membrane potential Δψm were determined by the XTT and TMRE/MTG assays (n=7 and 9), respectively, and normalized to untreated hESC-CMs (i.e., the “Control” groups). *p<0.05, **p<0.01, ***p<0.001.
The cells in the “Dox” groups were treated with 1 mM dox for 24 hrs; the cells in the “Dox+NAC” groups were pre-treated with 1 mM NAC for 1 hr, followed by co-treatment with 1 mM dox for 24 hrs. Cell viability was determined by the XTT assay (n=4) and normalized to untreated cells (i.e., the “Control” groups).

[2] = doses exceeding 550 mg/m^2; cited from earlier work
[3] = tested on: hPSC-CMs; conditions: unsorted hPSC-CMs as currently utilized; cited from earlier work
[4] = tested on: mouse models of DCT; conditions: in vivo; cited from earlier work
[5] = in vivo; cited from earlier work
[6] = tested on: CD172A^+/CD36^+ hESC-CMs; conditions: 100 μM hydrogen peroxide for 30 min
Experimental: (§1) FIGS. 4A-4D are bar graphs showing the relative levels of mitochondrial superoxide (A), mitochondrial membrane potential Δψm (B), nuclear condensation (C), and cell viability (D) in CD172A^+/CD36^+/−, CD172A^+/CD36^+, and CD172A^+/CD36^− hECS-CMs after exposure to 100 μM hydrogen peroxide for 30 min. The relative levels of mitochondrial superoxide, mitochondrial membrane potential, nuclear condensation, and cell viability were determined using the MitoSOX™ red dye (n=5), TMRE staining (n=5, calibrated by mitochondrial mass based on the result of MTG staining), Hoechst staining (n=5), and PrestoBlue® staining (n=9), respectively. *p<0.05, **p<0.01, ***p<0.001.
(§2) The responses of mitochondrial function to oxidative stress were examined in subpopulations of hESC-CMs.

[7] = tested on: CD172A^+/CD36^+/− hESC-CMs; conditions: 100 μM hydrogen peroxide for 30 min
Experimental: as §1, §2

[8] = tested on: CD172A^+/CD36^− hESC-CMs; conditions: 100 μM hydrogen peroxide for 30 min
Experimental: as §1, §2

[9] = dexrazoxane-treated pediatric patients, two randomized studies; cited from earlier work
[10] = tested on: CD172A^+/CD36^+ hESC-CMs; assay: Mitochondrial membrane potential (TMRE) with oleic acid supplementation; assay type: cell-based, human; conditions: nutrient-deficient media lacking fatty acids, plus oleic acid, FIG. 3B
Experimental: (§3) FIG. 3A is a bar graph showing the uptake of fatty acid (FA) by C[…]^+/CD36^+ (black) and C[…]^+/CD36^- (white) hESC-CMs. The FA uptake assay was performed using a BODIPY-labeled C16 palmitate analog (n=6). FIG. 3B is a bar graph showing the relative levels of mitochondrial membrane potential Δψm in C[…]^+/CD36^+ and C[…]^+/CD36^- hESC-CMs cultured in the absence (black) and presence (gray) of oleic acid (n=5). […] In addition to enhanced mitochondrial output, adult CMs were characterized by their preference for fatty acid as fuel for energy production. In CMs, CD36 functions as a fatty acid translocase to facilitate the uptake of long-chain fatty acids such as palmitic and oleic acids, thus increased level of this protein is expected to enhance fatty acid entry into cells. […] Additional experiments were performed to test whether increased fatty acid uptake led to increased metabolic output. When cultured in nutrient-deficient media lacking fatty acids, C[…]^+/CD36^+ and C[…]^+/CD36^- CMs had similar Δψm.

[11] = tested on: CD172A^+/CD36^− hESC-CMs; assay: as above; assay type: cell-based, human; conditions: nutrient-deficient media lacking fatty acids, plus oleic acid, FIG. 3B
Experimental: as §3

[12] = then co-treatment with 1 mM dox 24 hrs

COc1cccc2c1C(=O)c1c(O)c3c(c(O)c1C2=O)C[C@@](O)(C(=O)CO)C[C@@H]3O[C@H]1C[C@H](N)[C@H](O)[C@H](C)O1 [dox, Doxorubicin]
cell viability upon dox treatment (XTT) ([1]; 1 mM dox for 24 hrs, CD36^+ hESC-CMs compared to mixed (unsorted) or CD36^− CMs, FIG. 5A): more severe decrease
mitochondrial membrane potential (Δψm) upon dox treatment (TMRE/MTG) ([1]; 1 mM dox for 24 hrs, CD36^+ hESC-CMs compared to mixed (unsorted) or CD36^− CMs, FIG. 5B): more severe decrease
onset of dox-induced cell degeneration ([1]; CD36^+ hESC-CMs compared to mixed (unsorted) or CD36^− CMs): accelerated onset
incidence of congestive heart failure [2]: exceeds 30%

CC(=O)N[C@@H](CS)C(=O)O [N-acetylcysteine]
effect on cell viability upon dox treatment (XTT) [1, 12]: did not increase cell viability
protection of hPSC-CMs against DCT [3]: rescued
efficacy in mouse models of DCT [4]: effective
outcome in clinical trials (DCT) [5]: unsuccessful

vitamin E
effect on cell viability upon dox treatment (XTT) [1, 12]: did not increase cell viability

OO [hydrogen peroxide]
mitochondrial superoxide (MitoSOX red dye) ([6]; FIG. 4A): 3.5±0.3 fold
relative mitochondrial membrane potential Δψm (TMRE, calibrated by MTG) ([6]; FIG. 4B): 0.17±0.03
nuclear condensation (Hoechst staining) ([6]; FIG. 4C): 73±8%
mitochondrial superoxide (MitoSOX red dye) ([7]; FIG. 4A): 2.2±0.4 fold
relative mitochondrial membrane potential Δψm (TMRE, calibrated by MTG) ([7]; FIG. 4B): 0.30±0.03
nuclear condensation (Hoechst staining) ([7]; FIG. 4C): 46±15%
mitochondrial superoxide (MitoSOX red dye) ([8]; FIG. 4A): 1.7±1.2 fold
relative mitochondrial membrane potential Δψm (TMRE, calibrated by MTG) ([8]; FIG. 4B): 0.35±0.04
nuclear condensation (Hoechst staining) ([8]; FIG. 4C): 32%±11

C[C@@H](CN1CC(=O)NC(=O)C1)N1CC(=O)NC(=O)C1 [dexrazoxane]
protective effect against DCT (viability and Δψm) ([1]; 200 mM DRZ pre-treatment 1 hr, then co-treatment with 1 mM dox 24 hrs, CD36^+ hESC-CMs, FIGS. 5E, 5F): responded to the protective effect
protection of hPSC-CMs against DCT [3]: failed to protect
incidence of second primary malignancies (myelodysplastic syndrome and acute myeloid leukemia) [9]: threefold increase

CCCCCCCC/C=C\CCCCCCCC(=O)O [oleic acid]
increase in magnitude of Δψm on supplementation with oleic acid [10]: 43.0%
increase in magnitude of Δψm on supplementation with oleic acid [11]: 22.9%
